Assay results from US9657071B2, “IgE peptide vaccine” (NIPPON ZENYAKU KOGYO CO., LTD., priority 2012, dated 2017).

Key:
Assay type in all cases: in vivo
dog IgE = test: Subcutaneous administration test using rats: IgG antibody against dog IgE (ELISA); settings: 50 μg three times, no adjuvant
Protocol: The dog IgE protein (Bethyl Laboratories, Inc.; P115), the mouse IgE protein (BD Biosciences, San Jose, Calif., USA), and the human IgE protein (Athens Research And Technology, Inc.; 16-16-090705-ML) were each prepared at 1 μg/mL, 500 ng/mL, 250 ng/mL, 125 ng/mL, 62.5 ng/mL, 31.2 ng/mL, 15.6 ng/mL, 7.8 ng/mL, 3.9 ng/mL, 1.95 ng/mL, and 0.97 ng/mL in an immobilization buffer (0.05 M carbonate buffer, pH 9.6), then added at a concentration of 100 μL/well to an ELISA plate, and left overnight at 4° C. The immobilization plate was washed once with PBS-T (0.05%). A blocking solution (4× Block Ace, Snow Brand Milk Products Co., Ltd.; UK-B80) was added thereto at a concentration of 200 μL/well. The plate was blocked by incubation at 37° C. for 1.5 hours. The serum was diluted 2000-fold with a diluent (PBS-T:Block Ace=9:1) and used. The serum of an unimmunized rat was similarly diluted and used as a negative control. […] Then, the measurement was performed using a plate reader (Bio-Rad Laboratories, Inc.; model 680) (dual: measurement: 450 nm, control: 570 nm).
This peptide was used in the immunization of rats without the use of an adjuvant, and antibody response to dog IgE was evaluated. […]
Blood was collected every 2 weeks from the administer start date. […] Serum was collected, and an IgG antibody against dog IgE was evaluated by ELISA (FIG. 16). […]

human IgE [1] = test: Test using dog (Part 1): IgG antibody against human IgE (ELISA); settings: healthy beagles 8 months old, s.c. 1 mg five times at 2-week intervals, no adjuvant
Protocol: The peptide (M4-7-11) was concentration-adjusted to 2 mg/mL with saline, dispensed in an amount of 500 μL, and used as a vaccine. […] The vaccine administration method was subcutaneous administration of 1 mg per dose, which was performed five times at 2-week intervals. Another purpose of this test was to study the frequency of administration of the vaccine.
Dog: 4 healthy beagles (8 months old; 2 males and 2 females) were used.
Vaccine: the M4-7-11 peptide was used alone without being conjugated.
Administration method: 1 mg (500 μl, of 2 mg/mL) per dose was subcutaneously administered five times at 2-week intervals.
Evaluation: serum was collected approximately once per week, and an IgG antibody against human IgE was assayed by ELISA. Since dog IgE nonspecifically reacts with an anti-dog IgG antibody, human IgE having no nonspecific reaction was used in ELISA.
Human IgE (Athens Research And Technology, Inc.; IgE, human Myeloma Plasma) was prepared at 1 μg/mL in an immobilization buffer (0.05 M carbonate buffer, pH 9.6), then added at a concentration of 100 μL/well to an ELISA plate, and left overnight at 4° C. The immobilization plate was washed once with PBS-T (0.05%). […] Then, the measurement was performed using a plate reader (Bio-Rad Laboratories, Inc.; model 680) (dual: measurement: 450 nm, control: 570 nm). […]

human IgE [2] = test: Test using dog (Part 2): IgG antibody against human IgE (ELISA); settings: healthy adult beagles 24 months old, s.c. 1 mg five times at 2-week intervals
Protocol: Human IgE (Athens Research And Technology, Inc.; IgE, human Myeloma Plasma) was prepared at 1 μg/mL in an immobilization buffer (0.05 M carbonate buffer, pH 9.6), then added at a concentration of 100 μL/well to an ELISA plate, and left overnight at 4° C. The immobilization plate was washed once with PBS-T (0.05%). A blocking solution (4× Block Ace, Snow Brand Milk Products Co., Ltd.; UK-B80) was added thereto at a concentration of 200 μL/well. The plate was blocked by incubation at 37° C. for 1.5 hours. The serum was diluted 1000-fold with a diluent (PBS-T:Block Ace=9:1) and used. The plate was reacted with the serum at 37° C. for 1.5 hours and washed three times with PBS-T (0.05%). An anti-dog IgG antibody (Sheep anti-Dog IgG HRP, Bethyl Laboratories, Inc.; A40-118P) was diluted 2000-fold with a diluent and added thereto as a secondary antibody at a concentration of 100 μL/well. After reaction at 37° C. for 1.5 hours, the plate was washed three times with PBS-T (0.05%). A substrate solution (citrate buffer supplemented with one TMBZ tablet (Sigma-Aldrich Corp.; T-3405) and further supplemented, immediately before use, with 2 μL of 30% H2O2) was added at a concentration of 100 μL/well to the plate and reacted therewith for 10 minutes. […] Then, the measurement was performed using a plate reader (Bio-Rad Laboratories, Inc.; model 680) (dual: measurement: 450 nm, control: 570 nm). […]

KKTSVSASQWYTKHHNNATT (listed as Mus musculus) [M4-7-11]
level of the rat IgG antibody against dog IgE (dog IgE; intravenous): confirmed to elevate | level of the rat IgG antibody against dog IgE (dog IgE; subcutaneous): confirmed to elevate | level of the IgG antibody against IgE (human IgE [1]): confirmed to elevate | level of the IgG antibody against IgE (human IgE [1]; listed as M4-11-17): a rise in the level of the IgG antibody against IgE | level of the IgG antibody against IgE (human IgE [2]): confirmed to elevate
